Experimental data published in patent US20130324707A1, “SYNTHETIC AMPHIPHILES FOR MEMBRANE PROTEIN MANIPULATION” (The Board of Trustees of the Leland Stanford Junior …, priority 2009, published 2013).
Marks after values point to notes of the source that are not given here. Each block holds one compound with its values, some of them ahead of it.

How the values were obtained:
[1] = test system: R. capsulatus LHI-RC superassembly; assay: R. capsulatus photosynthetic superassembly solubilization and purification assay (detergent classification); design: species or system Rhodobacter capsulatus; conditions: words printed in the Classification column instead of a class: behaviour of the amphiphile
Protocol: To begin the solubilization and purification process, frozen aliquots of R. capsulatus membranes were thawed, homogenized, and equilibrated to 32° C. for 30 minutes.
The membrane samples were allowed to incubate with the amphiphile for 30 minutes at 32° C. The solubilized material was then separated from the membrane debris in an ultracentrifuge at 315,000×g at 4° C. for 30 minutes. […] The tubes were then incubated and inverted for 1 hour at 4° C.
Once binding was complete, samples were loaded onto resin-retaining spin columns (e.g., emptied His Spin Trap™ columns; GE Healthcare). The columns were then inserted into a 2 mL microcentrifuge tube to retain the filtered solution during centrifugation. […] Finally, protein was eluted into a fresh microcentrifuge tube with three 0.2 mL elution buffer aliquots (this buffer was identical to binding buffer with the addition of 1 M imidazole).
The R. capsulatus LHI-RC complexes extracted and purified by this procedure contain large numbers of cofactors that have absorptions at distinct wavelengths, and each component of the LHI-RC superassembly has a different inherent stability outside the lipid bilayer. The solubilization protocol outlined above therefore provides a multifaceted assessment of the efficacy of conventional detergents and novel amphiphiles. UV-Vis absorption spectroscopy data obtained at various stages of the protocol allow one to determine which protein components have degraded at these stages. […] The disruption potential was measured as the yield of superassembly extracted during solubilization (or, alternatively and more precisely, as the absence of superassembly in the pellet from the spin following solubilization).
The stabilizing propensity was determined from the spectra of the purified protein.

[2] = Critical micelle concentration (CMC) by fluorescent dye uptake; type: physicochemical
From the text: The Critical Micelle Concentrations (CMCs) of compounds of the invention can be determined by standard techniques known to those of skill in the art. For example, CMCs of the carbohydrate-based amphiphiles described herein can be determined by monitoring uptake of a fluorescent dye (e.g., a dye such as 1,6-diphenylhexatriene) with increasing detergent concentration, monitored by fluorescence spectroscopy.

M3 muscarinic receptor = assay: [3H]N-methylscopolamine binding to purified M3 muscarinic receptor in amphiphiles/detergents; conditions: for Binding (counts per minute (CPM)) of [3H]NMS compared to the use of DDM alone: upon addition of the amphiphile, HEPES pH 7.5, 100 mM NaCl
Protocol: For FIG. 5, the samples (DDM, MNG-28, and MNG-14) were combined with HEPES pH 7.5 buffer in a 100 mM NaCl solution. […] Therefore, the amphiphilic compounds described herein, such as the MNG amphiphiles, provide new options for enhancing the function and analysis of various isolated and/or purified proteins and receptors.

[3] = test system: human β2 adrenergic receptor-T4-lyosome fusion protein (β2AR-T4L); assay: Thermal stabilization (Tm) of β2AR-T4L in amphiphile, normalized peak ratio 341 nm/356 nm; design: Tm: unit: °C; conditions: for Tm: β2AR-T4L
From the text: FIG. 3 illustrates the results of comparing MNGs to MPAs at 10×CMC for stabilization efficacy of β2 adrenergic receptor-T4-lyosome fusion protein (β2AR-T4L), according to an embodiment of the invention.
FIG. 4 illustrates the results of comparing MNGs to MPAs at 50×CMC for stabilization efficacy of β2AR-T4L, according to an embodiment of the invention. Similar to FIG. 3, the horizontal dotted line extending from 50% on the y-axis in FIG. 4 indicates the melting temperature (Tm).
The branched amphiphiles of the invention have shown to have several advantageous properties that match or surpass those of many known amphiphiles. The branched nature provide improved stabilization, attributable to the dual saccharide chains, and improved solubilization, attributable to the dual hydrophobic tail groups. FIGS. 3 and 4 show a comparative study showing normalized peak ratios (341 nm/356 nm) for six different amphiphiles (illustrated in Schemes F and G) from 25° C. to 85° C., at 10×CMC and 50×CMC for human β2 adrenergic receptor-T4-lyosome fusion protein (β2AR-T4L).

β2AR = β2AR (Homo sapiens, UniProt P07550); assay: Lipidic cubic phase (LCP) crystallization of agonist-bound β2AR; conditions: detergent present before incorporation into LCP
Chain of β2AR (P07550 whole entry): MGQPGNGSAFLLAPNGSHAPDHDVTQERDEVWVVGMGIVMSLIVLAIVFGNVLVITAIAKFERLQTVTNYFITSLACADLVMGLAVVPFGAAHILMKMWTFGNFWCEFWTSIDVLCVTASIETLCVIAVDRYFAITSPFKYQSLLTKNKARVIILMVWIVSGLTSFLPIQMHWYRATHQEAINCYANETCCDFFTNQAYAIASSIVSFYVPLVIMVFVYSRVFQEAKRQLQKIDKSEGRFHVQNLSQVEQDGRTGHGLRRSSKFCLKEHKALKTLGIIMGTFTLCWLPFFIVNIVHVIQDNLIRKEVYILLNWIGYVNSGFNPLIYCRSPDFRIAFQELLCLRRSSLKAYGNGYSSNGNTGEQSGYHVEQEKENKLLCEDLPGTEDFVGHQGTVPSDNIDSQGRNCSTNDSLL
From the text: LCP methods have proven useful for crystallizing membrane proteins, including G protein-coupled receptors (GPCRs). However, the process of incorporating membrane proteins from a detergent solubilized state into LCP can lead to denaturation of the protein.

[4] = test system: human β2 adrenergic receptor-T4-lyosome fusion protein (β2AR-T4L); assay: Thermal stabilization (Tm) of β2AR-T4L in amphiphile, normalized peak ratio 341 nm/356 nm; design: Tm: unit: °C; conditions: 250 × CMC; for Tm: β2AR-T4L
[5] = 10 × CMC, scan from 25° C. to 85° C.

Compound: CC(C)(C)c1ccc(OCC(COc2ccc(C(C)(C)C)cc2)(COC2OC(CO)C(O)C(O)C2O)COC2OC(CO)C(O)C(O)C2O)cc1 (centres unmarked) [GNG-8]
Classification (entry in words) [1]: aggregation

Compound: CC(C)(C)c1ccc(C(=O)NCC(CNC(=O)c2ccc(C(C)(C)C)cc2)(COC2OC(CO)C(O)C(O)C2O)COC2OC(CO)C(O)C(O)C2O)cc1 (centres unmarked) [GNG-3]
Classification (entry in words) [1]: aggregation

Compound: CCCCCCCCCCCCO[C@@H]1O[C@H](CO)[C@@H](O[C@H]2O[C@H](CO)[C@@H](O)[C@H](O)[C@H]2O)[C@H](O)[C@H]1O [DDM, dodecylmaltoside, reference compound]
Tm [3, 5]: 63.5 (n = 4)*
Tm ([3]; 50 × CMC): 63.0 (n = 4)
Specific binding to [3H]N-methylscopolamine (M3 muscarinic receptor; M3 receptor purified from baculovirus infected insect cells using the detergent): little specific binding
Outcome of LCP crystallization of agonist-bound β2AR (β2AR): not sufficiently stable to survive the transition to LCP
Tm [4]: 62.2 (n = 4)

Compound: O=C(NCC(CNC(=O)C1CCCCC1)(COC1OC(CO)C(O)C(O)C1O)COC1OC(CO)C(O)C(O)C1O)C1CCCCC1 (centres unmarked) [GNG-5]
Classification (entry in words) [1]: Insoluble

Compound: CCCCCCCC(CCCCCCC)(COC1OC(CO)C(O)C(O)C1O)COC1OC(CO)C(O)C(O)C1O (centres unmarked) [GNG-9]
CMC [2]: 0.11 mM
CMC (%) [2]: 0.0066%
Classification (entry in words) [1]: limited

More lines, main results first:

CMC [2]: 0.018 mM
CMC (%) [2]: 0.0018%
Binding (counts per minute (CPM)) of [3H]NMS compared to the use of DDM alone (M3 muscarinic receptor): three-fold greater
Compound: CCCCCCCCCC(CCCCCCCCC)(COC1OC(CO)C(OC2OC(CO)C(O)C(O)C2O)C(O)C1O)COC1OC(CO)C(OC2OC(CO)C(O)C(O)C2O)C(O)C1O (centres unmarked) [MNG-28]

CMC [2]: 0.01 mM
CMC (%) [2]: 0.001%
ΔTm ([3]; 10 × CMC, relative to DDM): +3.9
Tm [3, 5]: 67.4 (n = 3)
ΔTm ([3]; 50 × CMC, relative to DDM): +5.4
Tm ([3]; 50 × CMC): 68.4 (n = 3)*
ΔTm ([3]; concentration not given, matches most favourable (*) Tm minus DDM 63.5): +4.9
Binding (counts per minute (CPM)) of [3H]NMS compared to the use of DDM alone (M3 muscarinic receptor): nine-fold higher
ΔTm ([4]; relative to DDM): +4.6
Tm [4]: 66.8 (n = 3)
Compound: CCCCCCCCCCC(CCCCCCCCCC)(COC1OC(CO)C(OC2OC(CO)C(O)C(O)C2O)C(O)C1O)COC1OC(CO)C(OC2OC(CO)C(O)C(O)C2O)C(O)C1O (centres unmarked) [MNG-14]
Stabilization of β2AR-T4L, comparison in words ([3]; 10 times CMC and 50 times CMC): best overall properties for stabilizing β2AR-T4L
Outcome of LCP crystallization of agonist-bound β2AR (β2AR): diffraction quality crystals were obtained
